# Starred links: 1 amine or outer side, 2 acyl side, 3 side chain; linkers in the order of their positions; H or OH if unused. Positions of bridges follow the written chain, without caps; N, C: chain ends. Non-standard residues stand in square brackets, D forms with d. Residues, ends and D or L forms follow the SMILES beside them. *: point of attachment. hPhe(3-Cl-4-CF3) = N[C@@H](CCc1ccc(C(F)(F)F)c(Cl)c1)C(=O)O; hPhe(3-F,4-CF3) = N[C@@H](CCc1ccc(C(F)(F)F)c(F)c1)C(=O)O; Pro(cis-4-Ph) = O=C(O)[C@@H]1C[C@H](c2ccccc2)CN1; 3Oxa8azabicyclo(3.2.1)octane = C1CC2COCC1N2*; NMePhe(4-F) = CN[C@@H](Cc1ccc(F)cc1)C(=O)O; NMedβ3hAla = C[C@H](CC(=O)[*:2])N(C)[*:1]; NMeGly(cPent) = CN[C@H](C(=O)O)C1CCCC1; NMeCha = CN[C@@H](CC1CCCCC1)C(=O)O; NMeChg = CN[C@H](C(=O)O)C1CCCCC1; NMeI = CC[C@H](C)[C@H](NC)C(=O)O; NMeD = CN[C@@H](CC(=O)O)C(=O)O; NMeL = CN[C@@H](CC(C)C)C(=O)O; NMehSer = CN[C@@H](CCO)C(=O)O; NMeV = CN[C@H](C(=O)O)C(C)C; Trifluoroethyl = FC(F)(F)C*; d(β3hA) = C[C@@H](N)CC(=O)O; NMeS = CN[C@@H](CO)C(=O)O; Pip = O=C(O)[C@@H]1CCCCN1; NMeA = CN[C@@H](C)C(=O)O; Piperidide = C1CCN(*)CC1; Ac5c = NC1(C(=O)O)CCCC1; Aze = O=C(O)[C@@H]1CCN1; Sar = CNCC(=O)O; Propyl = CCC*
# System: Human pancreatic cancer cell line AsPC-1
# Assay: Measurement of AsPC-1 cell growth inhibition (AsPC-1 CGI)
# Assay type: cell-based
# Settings: 96 h
# Protocol: Measurement of AsPC-1 Cell Growth Inhibition (AsPC-1 CGI)
# Test compounds were serially diluted with dimethyl sulfoxide, and 200 nL was then dispensed to a U-bottom 96-well plate using Labcyte Echo. Human pancreatic cancer cell line AsPC-1 was suspended in RPMI-1640 medium supplemented with 15% fetal bovine serum to prepare a cell suspension at 1000 cells/100 μL. The cell suspension was dispensed to a plate containing a test compound at 100 μL per well and incubated at 37° C. in a 5% carbon dioxide gas incubator. 96 hours later, 80 μL of CellTiter-Glo (Promega) was added to each well and […] was measured.
row,SMILES,IC50
1,CCCOC[C@H]1C(=O)N(C)CC(=O)N[C@@H](CCc2ccc(C(F)(F)F)c(Cl)c2)C(=O)N2CCC[C@H]2C(=O)NC2(CCCC2)C(=O)N(C)[C@@H](C2CCCC2)C(=O)N(C)[C@H](C)CC(=O)N(C)[C@@H](CC(C)C)C(=O)N[C@@H]([C@@H](C)CC)C(=O)N(C)[C@@H](C)C(=O)N2CC[C@H]2C(=O)N1C [Compound 366] (cyclo([Ac5c][NMeGly(cPent)][NMedβ3hAla][NMeL]I[NMeA][Aze][NMeS](Propyl)[Sar][hPhe(3-Cl-4-CF3)]P)),0.02 to 0.05 µM
2,"CC[C@H](C)[C@@H]1NC(=O)[C@H](CC(C)C)N(C)C(=O)C[C@@H](C)N(C)C(=O)[C@H](C2CCCC2)N(C)C(=O)C2(CCCC2)NC(=O)[C@@H]2CCCN2C(=O)[C@H](CCc2ccc(C(F)(F)F)c(F)c2)NC(=O)CN(C)C(=O)[C@H](C2CCCC2)N(C)C(=O)[C@@H]2CCN2C(=O)[C@H](C)N(C)C1=O [Compound 386] (cyclo([Ac5c][NMeGly(cPent)][NMedβ3hAla][NMeL]I[NMeA][Aze][NMeGly(cPent)][Sar][hPhe(3-F,4-CF3)]P))",0.02 to 0.05 µM
3,CC[C@H](C)[C@@H]1NC(=O)[C@H](COCC(F)(F)F)N(C)C(=O)C[C@@H](C(=O)N2CCCCC2)N(C)C(=O)[C@H](C(C)C)N(C)C(=O)C2(CCCC2)NC(=O)[C@@H]2CCCN2C(=O)[C@H](CCc2ccc(C(F)(F)F)c(Cl)c2)NC(=O)CN(C)C(=O)[C@H](CC2CCCCC2)N(C)C(=O)[C@@H]2CCN2C(=O)[C@H](C)N(C)C1=O [Compound 387] ([NMeS](Trifluoroethyl)I[NMeA][Aze][NMeCha][Sar][hPhe(3-Cl-4-CF3)]P[Ac5c][NMeV][NMeD]-Piperidide; lactam N-11),0.1 to 0.5 µM
4,CC[C@H](C)[C@@H]1NC(=O)[C@H](CC(C)C)N(C)C(=O)C[C@@H](C(=O)N2CCCCC2)N(C)C(=O)[C@H](C2CCCC2)N(C)C(=O)C2(CCCC2)NC(=O)[C@@H]2CCCN2C(=O)[C@H](CCc2ccc(C(F)(F)F)c(Cl)c2)NC(=O)CN(C)C(=O)[C@H](Cc2ccc(F)cc2)N(C)C(=O)[C@@H]2CCN2C(=O)[C@H](C)N(C)C1=O [Compound 388] ([NMeL]I[NMeA][Aze][NMePhe(4-F)][Sar][hPhe(3-Cl-4-CF3)]P[Ac5c][NMeGly(cPent)][NMeD]-Piperidide; lactam N-11),0.02 to 0.05 µM
5,CC[C@H](C)[C@@H]1NC(=O)[C@H](CCOC)N(C)C(=O)C[C@@H](C(=O)N2CCCCC2)N(C)C(=O)[C@H](C(C)C)N(C)C(=O)C2(CCCC2)NC(=O)[C@@H]2CCCN2C(=O)[C@H](CCc2ccc(C(F)(F)F)c(Cl)c2)NC(=O)CN(C)C(=O)[C@H](CC2CCCCC2)N(C)C(=O)[C@@H]2CCN2C(=O)[C@H](C)N(C)C1=O [Compound 397] ([NMehSer](Me)I[NMeA][Aze][NMeCha][Sar][hPhe(3-Cl-4-CF3)]P[Ac5c][NMeV][NMeD]-Piperidide; lactam N-11),0.1 to 0.5 µM
6,"CCCOC[C@H]1C(=O)N(C)CC(=O)N[C@@H](CCc2ccc(C(F)(F)F)c(F)c2)C(=O)N2CCC[C@H]2C(=O)NC2(CCCC2)C(=O)N(C)[C@@H]([C@@H](C)CC)C(=O)N(C)[C@H](C(=O)N2C3CCC2COC3)CC(=O)N(C)[C@@H](CC(C)C)C(=O)N[C@@H]([C@@H](C)CC)C(=O)N(C)[C@@H](C)C(=O)N2CC[C@H]2C(=O)N1C [Compound 408] ([NMeL]I[NMeA][Aze][NMeS](Propyl)[Sar][hPhe(3-F,4-CF3)]P[Ac5c][NMeI][NMeD]-{3Oxa8azabicyclo(3.2.1)octane}; lactam N-11)",0.05 to 0.1 µM
7,"CC[C@H](C)[C@@H]1NC(=O)[C@H](CC(C)C)N(C)C(=O)C[C@@H](C(=O)N2CCCCC2)N(C)C(=O)[C@H]([C@@H](C)CC)N(C)C(=O)C2(CCCC2)NC(=O)[C@@H]2CCCN2C(=O)[C@H](CCc2ccc(C(F)(F)F)c(F)c2)NC(=O)CN(C)C(=O)[C@H](CC2CCCCC2)N(C)C(=O)[C@@H]2CCN2C(=O)[C@H](C)N(C)C1=O [Compound 409] ([NMeL]I[NMeA][Aze][NMeCha][Sar][hPhe(3-F,4-CF3)]P[Ac5c][NMeI][NMeD]-Piperidide; lactam N-11)",0.05 to 0.1 µM
8,CC[C@H](C)[C@@H]1NC(=O)[C@H](CC(C)C)N(C)C(=O)C[C@@H](C)NC(=O)[C@H](C(C)C)N(C)C(=O)C2(CCCC2)NC(=O)[C@@H]2CCCN2C(=O)[C@H](CCc2ccc(C(F)(F)F)c(Cl)c2)NC(=O)CN(C)C(=O)[C@H](CC2CCCCC2)N(C)C(=O)[C@@H]2CCN2C(=O)[C@@H]2CCCCN2C1=O [Compound 416] (cyclo([Ac5c][NMeV][d(β3hA)][NMeL]I[Pip][Aze][NMeCha][Sar][hPhe(3-Cl-4-CF3)]P)),0.1 to 0.5 µM
9,CC[C@H](C)[C@@H]1NC(=O)[C@H](CC(C)C)N(C)C(=O)C[C@@H](C(=O)N2CCCCC2)N(C)C(=O)[C@H](C2CCCCC2)N(C)C(=O)C2(CCCC2)NC(=O)[C@@H]2C[C@H](c3ccccc3)CN2C(=O)[C@H](CCc2ccc(C(F)(F)F)c(Cl)c2)NC(=O)CN(C)C(=O)[C@H](CC2CCCCC2)N(C)C(=O)CN(C)C(=O)CN(C)C1=O [Compound 428] ([NMeL]I[Sar][Sar][NMeCha][Sar][hPhe(3-Cl-4-CF3)][Pro(cis-4-Ph)][Ac5c][NMeChg][NMeD]-Piperidide; lactam N-11),0.1 to 0.5 µM

# Reference: patent publication US12371454B2, “Cyclic peptide compound having Kras inhibitory action” (priority 2019, dated 2025)
